For assay [1], the target named is MAP kinase-activated protein kinase 3 (Homo sapiens) (UniProt Q16644). Briefly: Inhibition of human recombinant MAPKAPK3 at 15 nM related to control ULK1.
Assay [2] addresses Glycogen synthase kinase-3 beta (Homo sapiens) (UniProt P49841). Briefly: Inhibition of human recombinant GSK3B at 15 nM in presence of ATP by radiometric assay relative to control.
Assay [3] concerns the target Calcium/calmodulin-dependent protein kinase type 1D (Homo sapiens) (UniProt Q8IU85). Briefly: Inhibition of human recombinant CaMK1d at 15 nM in presence of ATP by radiometric assay relative to control.
Assay [4] has as its target Transient receptor potential cation channel subfamily M member 7 (Homo sapiens) (UniProt Q96QT4). Briefly: Inhibition of human recombinant ChaK1 at 15 nM in presence of ATP by radiometric assay relative to control.
Assay [5] deals with Tyrosine-protein kinase JAK1 (Homo sapiens) (UniProt P23458). Briefly: Inhibition of human recombinant JAK1 at 15 nM related to control ULK1.
The target in assay [6] is Protein kinase C theta type (Homo sapiens) (UniProt Q04759). Briefly: Inhibition of human recombinant PKCt at 40 nM related to control ULK1.
Assay [7] concerns the target Dual specificity tyrosine-phosphorylation-regulated kinase 1A (Homo sapiens) (UniProt Q13627). Briefly: Inhibition of human recombinant DYRK1A at 500 nM in presence of ATP by radiometric assay relative to control.
In assay [8] the target is Tyrosine-protein kinase ABL2 (Homo sapiens) (UniProt P42684). Briefly: Inhibition of human recombinant ABL2 at 500 nM related to control ULK1.
For assay [9], the target named is T1, Eukaryotic translation initiation factor 2-alpha kinase 3 (Homo sapiens) (UniProt Q9NZJ5).
T1 sequence (whole entry): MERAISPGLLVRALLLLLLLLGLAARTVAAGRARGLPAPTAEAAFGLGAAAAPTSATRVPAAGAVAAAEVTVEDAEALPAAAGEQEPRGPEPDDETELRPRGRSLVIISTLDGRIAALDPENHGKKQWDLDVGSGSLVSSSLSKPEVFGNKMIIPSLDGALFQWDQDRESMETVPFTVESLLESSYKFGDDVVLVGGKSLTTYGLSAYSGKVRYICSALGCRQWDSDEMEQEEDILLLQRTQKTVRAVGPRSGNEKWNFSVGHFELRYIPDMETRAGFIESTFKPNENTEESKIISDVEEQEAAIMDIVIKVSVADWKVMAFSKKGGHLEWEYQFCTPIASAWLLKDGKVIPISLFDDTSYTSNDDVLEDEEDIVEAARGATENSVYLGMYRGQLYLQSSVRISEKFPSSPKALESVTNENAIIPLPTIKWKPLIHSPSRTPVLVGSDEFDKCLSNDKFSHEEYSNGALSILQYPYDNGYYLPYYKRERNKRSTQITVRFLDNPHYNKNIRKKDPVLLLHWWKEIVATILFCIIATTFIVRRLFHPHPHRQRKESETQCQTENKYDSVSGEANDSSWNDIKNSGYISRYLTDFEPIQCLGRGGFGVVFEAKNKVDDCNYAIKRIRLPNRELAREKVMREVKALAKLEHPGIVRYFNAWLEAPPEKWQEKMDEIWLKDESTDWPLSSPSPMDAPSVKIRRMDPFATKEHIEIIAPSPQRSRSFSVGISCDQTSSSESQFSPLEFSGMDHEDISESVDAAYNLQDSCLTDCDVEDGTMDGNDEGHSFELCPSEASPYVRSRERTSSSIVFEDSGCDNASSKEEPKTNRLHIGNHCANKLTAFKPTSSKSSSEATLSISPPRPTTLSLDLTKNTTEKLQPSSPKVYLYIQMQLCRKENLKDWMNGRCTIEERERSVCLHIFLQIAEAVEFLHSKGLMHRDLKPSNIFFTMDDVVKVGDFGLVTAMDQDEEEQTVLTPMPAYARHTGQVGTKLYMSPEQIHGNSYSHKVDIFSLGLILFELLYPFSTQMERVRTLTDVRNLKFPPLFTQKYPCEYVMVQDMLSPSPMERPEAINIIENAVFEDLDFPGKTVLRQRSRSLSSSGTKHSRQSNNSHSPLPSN
Briefly: Inhibition of human recombinant PEK at 500 nM related to control ULK1.

In assay [10] the target is T2, Mitogen-activated protein kinase 12 (Homo sapiens) (UniProt P53778).
T2 sequence (whole entry): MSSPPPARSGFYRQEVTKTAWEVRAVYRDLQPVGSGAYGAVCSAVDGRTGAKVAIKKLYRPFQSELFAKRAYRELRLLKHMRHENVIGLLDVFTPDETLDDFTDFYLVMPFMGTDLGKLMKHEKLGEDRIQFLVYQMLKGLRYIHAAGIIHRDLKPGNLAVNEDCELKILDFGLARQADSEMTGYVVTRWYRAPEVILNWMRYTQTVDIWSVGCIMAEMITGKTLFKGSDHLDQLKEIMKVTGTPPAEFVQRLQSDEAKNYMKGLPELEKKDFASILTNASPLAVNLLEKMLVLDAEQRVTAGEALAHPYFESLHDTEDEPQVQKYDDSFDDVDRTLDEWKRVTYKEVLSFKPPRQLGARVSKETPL
Briefly: Inhibition of human recombinant p38gamma at 500 nM related to control ULK1.

Assay [11] has as its target Serine/threonine-protein kinase tousled-like 2 (Homo sapiens) (UniProt Q86UE8). Briefly: Inhibition of human recombinant TLK2 at 500 nM related to control ULK1.
Assay [12] has as its target Tyrosine-protein kinase Lyn (Homo sapiens) (UniProt P07948). Briefly: Inhibition of human recombinant LYN at 500 nM in presence of ATP by radiometric assay relative to control.
In assay [13] the target is Mitogen-activated protein kinase 9 (Homo sapiens) (UniProt P45984). Briefly: Inhibition of human recombinant JNK2 at 500 nM related to control ULK1.
In assay [14] the target is Mitogen-activated protein kinase 8 (Homo sapiens) (UniProt P45983). Briefly: Inhibition of human recombinant JNK1 at 500 nM related to control ULK1.

Drawing on ChEMBL document CHEMBL5653631, “A Potent and Selective ULK1 Inhibitor Suppresses Autophagy and Sensitizes Cancer Cells to Nutrient Stress” (iScience, 2018), this text covers fold change (FC) and inhibition for three molecules.

In general, inhibition refers to the percentage by which the read-out fell short of the control.

Sequence of Serine/threonine-protein kinase tousled-like 2 (Homo sapiens) (Q86UE8 whole entry, looked up): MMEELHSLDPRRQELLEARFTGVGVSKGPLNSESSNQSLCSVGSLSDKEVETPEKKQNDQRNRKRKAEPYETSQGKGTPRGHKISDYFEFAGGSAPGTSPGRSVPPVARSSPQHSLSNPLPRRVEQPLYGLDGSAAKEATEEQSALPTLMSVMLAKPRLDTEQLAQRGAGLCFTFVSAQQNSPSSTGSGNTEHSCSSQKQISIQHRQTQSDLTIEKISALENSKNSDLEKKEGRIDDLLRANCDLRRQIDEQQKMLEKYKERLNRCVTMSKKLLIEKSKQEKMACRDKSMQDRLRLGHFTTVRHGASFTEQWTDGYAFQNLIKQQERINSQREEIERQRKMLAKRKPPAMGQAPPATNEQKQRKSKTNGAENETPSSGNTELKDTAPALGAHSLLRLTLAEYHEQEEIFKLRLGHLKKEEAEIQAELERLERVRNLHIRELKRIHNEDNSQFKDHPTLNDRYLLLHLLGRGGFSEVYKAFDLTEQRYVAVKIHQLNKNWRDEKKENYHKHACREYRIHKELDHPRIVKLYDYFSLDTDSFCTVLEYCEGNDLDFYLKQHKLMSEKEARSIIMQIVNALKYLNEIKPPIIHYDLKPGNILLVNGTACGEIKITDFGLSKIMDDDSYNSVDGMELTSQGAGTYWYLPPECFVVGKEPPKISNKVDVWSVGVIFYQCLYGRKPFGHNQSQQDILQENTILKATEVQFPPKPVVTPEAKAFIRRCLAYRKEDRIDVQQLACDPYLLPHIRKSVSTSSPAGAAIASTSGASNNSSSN
Sequence of Tyrosine-protein kinase JAK1 (Homo sapiens) (P23458 whole entry): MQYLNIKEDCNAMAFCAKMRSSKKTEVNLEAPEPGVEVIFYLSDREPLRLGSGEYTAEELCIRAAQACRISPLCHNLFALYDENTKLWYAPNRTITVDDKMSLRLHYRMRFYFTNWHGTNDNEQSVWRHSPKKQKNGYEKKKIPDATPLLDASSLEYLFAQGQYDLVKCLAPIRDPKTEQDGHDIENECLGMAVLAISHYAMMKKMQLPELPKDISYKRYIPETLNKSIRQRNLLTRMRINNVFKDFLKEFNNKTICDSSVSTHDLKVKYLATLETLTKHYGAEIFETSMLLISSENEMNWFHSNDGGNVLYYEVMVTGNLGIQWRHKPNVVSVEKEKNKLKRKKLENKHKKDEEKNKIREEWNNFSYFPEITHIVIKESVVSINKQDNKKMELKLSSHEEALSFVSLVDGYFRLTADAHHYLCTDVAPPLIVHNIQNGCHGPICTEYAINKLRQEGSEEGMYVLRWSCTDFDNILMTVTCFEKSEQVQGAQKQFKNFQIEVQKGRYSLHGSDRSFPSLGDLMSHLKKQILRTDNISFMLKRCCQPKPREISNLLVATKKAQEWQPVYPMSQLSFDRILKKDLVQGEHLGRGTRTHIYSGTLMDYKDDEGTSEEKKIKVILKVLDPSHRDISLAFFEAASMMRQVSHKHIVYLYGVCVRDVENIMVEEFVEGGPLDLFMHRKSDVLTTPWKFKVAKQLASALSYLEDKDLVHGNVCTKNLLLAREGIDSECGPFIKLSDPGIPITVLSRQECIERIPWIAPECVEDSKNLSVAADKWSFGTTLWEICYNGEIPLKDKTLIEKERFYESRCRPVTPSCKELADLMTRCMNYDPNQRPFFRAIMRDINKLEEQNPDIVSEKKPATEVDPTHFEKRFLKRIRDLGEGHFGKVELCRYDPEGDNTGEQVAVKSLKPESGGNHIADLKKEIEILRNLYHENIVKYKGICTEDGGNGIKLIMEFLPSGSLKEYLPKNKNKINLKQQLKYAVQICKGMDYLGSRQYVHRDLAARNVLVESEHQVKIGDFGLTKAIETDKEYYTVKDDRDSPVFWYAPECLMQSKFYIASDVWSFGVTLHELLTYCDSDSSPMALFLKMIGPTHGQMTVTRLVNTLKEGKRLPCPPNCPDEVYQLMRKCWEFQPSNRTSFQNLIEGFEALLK
Sequence of MAP kinase-activated protein kinase 3 (Homo sapiens) (Q16644 whole entry, looked up): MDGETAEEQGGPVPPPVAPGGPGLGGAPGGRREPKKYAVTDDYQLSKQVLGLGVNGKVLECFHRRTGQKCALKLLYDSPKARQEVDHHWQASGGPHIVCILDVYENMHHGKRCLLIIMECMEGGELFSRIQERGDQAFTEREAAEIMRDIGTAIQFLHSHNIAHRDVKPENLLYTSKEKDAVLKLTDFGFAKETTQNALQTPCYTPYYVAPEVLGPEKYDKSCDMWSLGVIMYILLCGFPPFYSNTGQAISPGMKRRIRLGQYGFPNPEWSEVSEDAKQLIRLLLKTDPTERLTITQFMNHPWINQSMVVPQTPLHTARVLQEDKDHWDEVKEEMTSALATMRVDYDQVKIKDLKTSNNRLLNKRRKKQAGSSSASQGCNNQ
Sequence of Calcium/calmodulin-dependent protein kinase type 1D (Homo sapiens) (Q8IU85 whole entry, looked up): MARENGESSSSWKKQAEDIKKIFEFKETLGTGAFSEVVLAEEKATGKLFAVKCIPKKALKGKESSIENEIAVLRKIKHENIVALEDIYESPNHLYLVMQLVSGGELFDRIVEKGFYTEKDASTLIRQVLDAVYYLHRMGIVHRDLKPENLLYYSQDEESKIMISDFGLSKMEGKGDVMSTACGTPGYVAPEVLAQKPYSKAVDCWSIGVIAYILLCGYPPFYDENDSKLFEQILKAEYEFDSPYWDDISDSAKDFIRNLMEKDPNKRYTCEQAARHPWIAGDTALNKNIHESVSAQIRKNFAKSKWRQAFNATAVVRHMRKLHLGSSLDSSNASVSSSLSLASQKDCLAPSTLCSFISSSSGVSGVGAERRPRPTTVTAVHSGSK
Sequence of Mitogen-activated protein kinase 8 (Homo sapiens) (P45983 whole entry): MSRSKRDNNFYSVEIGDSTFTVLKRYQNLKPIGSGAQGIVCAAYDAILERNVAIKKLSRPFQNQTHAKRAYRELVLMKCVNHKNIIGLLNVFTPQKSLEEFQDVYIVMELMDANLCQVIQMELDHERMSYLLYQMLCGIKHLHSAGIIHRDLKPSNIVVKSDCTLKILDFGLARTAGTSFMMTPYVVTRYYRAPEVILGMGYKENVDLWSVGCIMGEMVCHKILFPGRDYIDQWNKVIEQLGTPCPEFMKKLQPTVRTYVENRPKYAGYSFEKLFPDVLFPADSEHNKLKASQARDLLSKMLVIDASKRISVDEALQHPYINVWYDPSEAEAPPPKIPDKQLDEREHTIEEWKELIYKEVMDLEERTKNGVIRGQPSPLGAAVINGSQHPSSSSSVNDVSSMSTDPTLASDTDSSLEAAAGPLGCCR
Sequence of Tyrosine-protein kinase ABL2 (Homo sapiens) (P42684 whole entry): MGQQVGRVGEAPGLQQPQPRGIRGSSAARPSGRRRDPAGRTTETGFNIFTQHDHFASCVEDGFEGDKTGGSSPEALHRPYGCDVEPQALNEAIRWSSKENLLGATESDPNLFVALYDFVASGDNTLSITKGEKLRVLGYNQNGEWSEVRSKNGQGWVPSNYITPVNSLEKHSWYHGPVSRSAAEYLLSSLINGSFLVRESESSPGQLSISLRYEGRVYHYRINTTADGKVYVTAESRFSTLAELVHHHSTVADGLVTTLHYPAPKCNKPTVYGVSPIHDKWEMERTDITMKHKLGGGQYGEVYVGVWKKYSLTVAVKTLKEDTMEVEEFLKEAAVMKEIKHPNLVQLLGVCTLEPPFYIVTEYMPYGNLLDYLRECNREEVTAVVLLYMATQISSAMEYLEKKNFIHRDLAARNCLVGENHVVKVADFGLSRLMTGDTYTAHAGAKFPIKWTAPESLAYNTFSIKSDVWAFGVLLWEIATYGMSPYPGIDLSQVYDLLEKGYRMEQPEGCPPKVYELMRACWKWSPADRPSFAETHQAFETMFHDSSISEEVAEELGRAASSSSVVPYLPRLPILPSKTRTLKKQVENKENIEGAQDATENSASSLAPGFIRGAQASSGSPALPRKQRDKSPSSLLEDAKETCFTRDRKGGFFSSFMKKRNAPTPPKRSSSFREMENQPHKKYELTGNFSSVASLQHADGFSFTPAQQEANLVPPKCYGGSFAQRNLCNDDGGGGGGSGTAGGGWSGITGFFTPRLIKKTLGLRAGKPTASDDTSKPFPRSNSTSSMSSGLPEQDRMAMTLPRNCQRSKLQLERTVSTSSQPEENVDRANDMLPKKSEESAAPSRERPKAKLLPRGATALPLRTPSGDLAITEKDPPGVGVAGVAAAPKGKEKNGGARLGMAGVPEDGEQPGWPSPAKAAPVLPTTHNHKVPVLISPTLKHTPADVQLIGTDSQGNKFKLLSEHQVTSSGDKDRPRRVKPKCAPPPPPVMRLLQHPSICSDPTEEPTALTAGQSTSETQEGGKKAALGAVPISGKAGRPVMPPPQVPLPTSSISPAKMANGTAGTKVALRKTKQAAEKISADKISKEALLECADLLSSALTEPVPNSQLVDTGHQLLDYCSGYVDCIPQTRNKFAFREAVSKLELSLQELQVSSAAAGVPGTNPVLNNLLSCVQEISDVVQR
Sequence of Tyrosine-protein kinase Lyn (Homo sapiens) (P07948 2-512 limits assumed): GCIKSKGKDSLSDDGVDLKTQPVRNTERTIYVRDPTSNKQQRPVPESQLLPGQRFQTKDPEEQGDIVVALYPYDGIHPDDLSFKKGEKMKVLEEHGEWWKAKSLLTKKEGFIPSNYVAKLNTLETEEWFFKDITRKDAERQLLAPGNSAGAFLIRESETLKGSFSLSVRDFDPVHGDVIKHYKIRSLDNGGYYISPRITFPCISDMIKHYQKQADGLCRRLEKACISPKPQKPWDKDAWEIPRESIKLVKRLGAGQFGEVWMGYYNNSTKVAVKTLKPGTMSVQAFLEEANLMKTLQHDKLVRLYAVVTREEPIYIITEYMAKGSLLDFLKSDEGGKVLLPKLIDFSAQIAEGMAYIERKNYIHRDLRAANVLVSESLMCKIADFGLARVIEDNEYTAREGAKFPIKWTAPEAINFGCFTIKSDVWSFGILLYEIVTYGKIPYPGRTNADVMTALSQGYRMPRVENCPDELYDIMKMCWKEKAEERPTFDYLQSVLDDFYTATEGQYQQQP

For the molecule `CC(C)[C@H](NC(=O)c1cc(-c2cnn3cc(-c4ccc(OCCN5CCCCC5)cc4)cnc23)cs1)C(F)(F)F`, the fold change (FC) in assay [1] and in assay [5] was 0 throughout. In addition, the inhibition in [2] is 11%; in [3] it was 0%; in [4] it was 12%.

Consider `O=C(N[C@@H](C1CC1)C(F)(F)F)c1cc(-c2cnn3cc(-c4ccc(F)cc4)cnc23)cs1`, for which, in [6], the fold change (FC) was 0.

As to `CNC(=O)c1ccccc1Oc1nc(Nc2cc(OC)c(OC)c(OC)c2)ncc1Br`, the inhibition stood at 1% in assay [7] and 30% in [12]. Also, the fold change (FC) turned out to be 0.28 in assay [8]; 0 in assay [9]; 0 in assay [10]; 0 in assay [11]; 0 in [13]; 0.01 in assay [14].
